For one series, the target named is T1, HCMV polymerase (Human cytomegalovirus, UniProt P08546).
T1 construct: made in house; host or cells: recombinant baculovirus-infected SF-9 cells
The series is described as follows: HCMV polymerase assay (scintillation proximity assay). To be noted: pol type CMV. The series is classed as biochemical. A digest of the protocol:
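Baculovirus/SF-9-expressed purified enzyme in HEPES pH 7.5, KCl, 4.5 mM MgCl2, BSA, with 90 nM ³H-dTTP, ± 2 mM CHAPS; started with 6 nM biotinylated poly(dA)-oligo(dT), 30 min, stopped with EDTA. Incorporation read by streptavidin SPA beads; IC50 by linear regression.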
Background: In a scintillation proximity assay essentially only radioactivity close to the scintillant gives light.

[1] abbreviates: Table 1, read-out: CMV pol Assay IC50.

SMILES strings stand for the structures. Values joined by “and” are separate entries in the source; they are usually repeats but may differ in a detail not shown here. Equal values may be shown once. Read-outs that look alike come from different tables or passages of the source.

T1 sequence (P08546 whole entry): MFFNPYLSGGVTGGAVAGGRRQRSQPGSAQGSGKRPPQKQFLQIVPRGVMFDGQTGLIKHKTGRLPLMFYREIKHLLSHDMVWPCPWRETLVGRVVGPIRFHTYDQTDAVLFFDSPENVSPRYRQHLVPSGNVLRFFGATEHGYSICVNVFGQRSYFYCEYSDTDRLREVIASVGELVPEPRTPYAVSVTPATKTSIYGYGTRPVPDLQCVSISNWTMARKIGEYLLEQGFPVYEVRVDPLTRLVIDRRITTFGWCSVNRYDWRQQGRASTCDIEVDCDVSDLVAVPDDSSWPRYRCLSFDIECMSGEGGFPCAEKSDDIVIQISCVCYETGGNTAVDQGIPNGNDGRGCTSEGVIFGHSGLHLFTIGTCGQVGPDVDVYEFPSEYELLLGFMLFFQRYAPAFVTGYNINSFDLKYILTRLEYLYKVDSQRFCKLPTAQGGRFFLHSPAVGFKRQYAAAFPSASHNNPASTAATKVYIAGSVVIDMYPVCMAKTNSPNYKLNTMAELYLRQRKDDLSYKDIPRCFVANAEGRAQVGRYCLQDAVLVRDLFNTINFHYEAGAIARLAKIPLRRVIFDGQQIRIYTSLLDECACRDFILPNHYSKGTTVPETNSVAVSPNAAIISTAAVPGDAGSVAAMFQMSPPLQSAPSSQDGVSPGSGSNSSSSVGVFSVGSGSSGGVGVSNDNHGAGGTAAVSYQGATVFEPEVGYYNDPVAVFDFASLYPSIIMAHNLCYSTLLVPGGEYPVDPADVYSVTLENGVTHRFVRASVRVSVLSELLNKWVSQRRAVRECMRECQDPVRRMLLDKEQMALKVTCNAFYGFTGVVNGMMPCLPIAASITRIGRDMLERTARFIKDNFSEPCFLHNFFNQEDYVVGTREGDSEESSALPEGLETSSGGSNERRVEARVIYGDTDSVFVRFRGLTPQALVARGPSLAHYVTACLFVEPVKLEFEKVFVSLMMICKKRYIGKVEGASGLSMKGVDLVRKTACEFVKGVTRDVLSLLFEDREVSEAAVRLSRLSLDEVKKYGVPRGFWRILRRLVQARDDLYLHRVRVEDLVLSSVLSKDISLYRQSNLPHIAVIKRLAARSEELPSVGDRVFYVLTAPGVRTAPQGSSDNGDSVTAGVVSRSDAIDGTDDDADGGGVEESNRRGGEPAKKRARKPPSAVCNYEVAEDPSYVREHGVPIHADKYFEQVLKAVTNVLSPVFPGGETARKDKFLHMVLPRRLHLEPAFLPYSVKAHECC

For orientation: melting point means the temperature of the solid-liquid transition. In general, IC50 refers to the concentration that gives 50% inhibition. As for `O=C(NC1=NC(=O)C(c2cccc(Cl)c2)S1)c1ccc2cccnc2c1O` (stereo not shown) [Example 8, N-[5-(3-Chlorophenyl)-4,5-dihydro-4-oxo-2-thiazolyl]-8-hydroxy-7-quinolinecarboxamide], the melting point was 268 to 272 °C (dec.). The IC50 on HCMV polymerase (setting [1]) came to 20.1 µM.

Consider `Cc1ccc2c(Cl)cc(S(=O)(=O)Nc3ccc(Cl)cc3)c(O)c2n1` [Example 28, 5-Chloro-N-(4-chlorophenyl)-8-hydroxy-2-methyl-7-quinoline-sulfonamide], for which the melting point is 284 to 287 °C (dec.). Further, at HCMV polymerase (Table 2, read-out: IC50), the IC50 was determined as 5.5 µM.

Regarding `O=C(NCCSc1ccccc1)c1ccc2ccc(/C=C/c3ccccc3)nc2c1O` [Example 52, 8-Hydroxy-2-(2-phenylethenyl)-N-[2-(phenylthio)ethyl]-7-quinolinecarboxamide], the melting point is 131 to 132 °C. Further, on HCMV polymerase (Table 5, read-out: IC50), the IC50 is < 3.1 µM and 0.17 µM.

`COc1ccc(/C=C/c2ccc3ccc(C(=O)NCC(O)c4ccccc4)c(O)c3n2)cc1` (stereo not shown) [Example 53, 8-Hydroxy-N-(2-hydroxy-2-phenylethyl)-2-[2-(4-methoxyphenyl)ethenyl]-7-quinolinecarboxamide]: the melting point fell in the range of 203 to 205 °C. Also, on HCMV polymerase (Table 5, read-out: IC50), the 50% inhibitory concentration (IC50) was < 3.1 µM and 0.3 µM.

With `O=C(Nc1ccc(Cl)cc1)c1cc(Br)c2cccnc2c1O` [Example 4, 5-Bromo-N-(4-chlorophenyl)-8-hydroxy-7-quinolinecarboxamide], the melting point lay within 213 to 215 °C. The IC50 at HCMV polymerase (setting [1]) was 3.9 µM and 3.1 µM and 5.1 µM.

Regarding `O=C(NCc1ccc(Cl)cc1)c1ccc2c(O)cc(C(F)(F)F)nc2c1O` [Example 46, N-[(4-Chlorophenyl)methyl]-4,8-dihydroxy-2-trifluoromethyl-7-quinolinecarboxamide], the melting point is 135 to 140 °C (dec.). The IC50 on HCMV polymerase (Table 5, read-out: IC50) came out at 23.3 µM.

In turn, `O=C(NCc1ccc(Cl)cc1)c1ccc2ccc(C(F)(F)F)nc2c1O` [Example 55, N-[(4-Chlorophenyl)methyl]-8-hydroxy-2-(trifluoromethyl)-7-quinolinecarboxamide] had a melting point of 92 to 94 °C. The IC50 at HCMV polymerase (Table 5, read-out: IC50) is 31.5 µM and 19.7 µM.

Turning to `CC(C)(C)c1ccc2c(Cl)cc(S(=O)(=O)NCc3ccc(Cl)cc3)c(O)c2n1` [Example 19, 5-Chloro-N-[(4-chlorophenyl)methyl]-2-(1,1-dimethylethyl)-8-hydroxy-7-quinolinesulfonamide], the melting point was 162 to 163 °C (dec.). For the same molecule, on HCMV polymerase (Table 2, read-out: IC50), the IC50 stood at 23.6 µM.

`O=S(=O)(NCCc1ccc(Cl)cc1)c1cc(Cl)c2cccnc2c1O` [Example 23, 5-Chloro-N-[2-(4-chlorophenyl)ethyl]-8-hydroxy-7-quinoline-sulfonamide] registered a melting point of 192 to 194 °C. Besides, the IC50 on HCMV polymerase (Table 2, read-out: IC50) was 2 µM and 3.1 µM.

`O=C(Nc1nnc(Cc2ccc(Cl)cc2)s1)c1ccc2cccnc2c1O` [Example 2, N-[5-[(4-Chlorophenyl)methyl]-1,3,4-thiadiazol-2-yl]-8-hydroxy-7-quinolinecarboxamide] had a melting point of 276 to 278 °C. The IC50 at HCMV polymerase (setting [1]) was 4.3 µM.

Take `CCCCCCCCNS(=O)(=O)c1cc(Cl)c2ccc(C)nc2c1O` [Example 29, 5-Chloro-8-hydroxy-2-methyl-N-octyl-7-quinolinesulfonamide]: the melting point was 85 to 100 °C. The IC50 at HCMV polymerase (Table 2, read-out: IC50) was 18.3 µM and 40.1 µM.

In the case of `O=S(=O)(Nc1ccc(Cl)cc1)c1cc(Cl)c2cccnc2c1O` [Example 20, 5-Chloro-N-(4-chlorophenyl)-8-hydroxy-7-quinoline-sulfonamide], the melting point was 97 °C (dec.). Besides, on HCMV polymerase (Table 2, read-out: IC50), the concentration for half-maximal inhibition (IC50) came to 14.5 µM.

In turn, `O=C(NCc1ccc(Cl)cc1)c1cc(Br)c2cccnc2c1O` [Example 9, 5-Bromo-N-[(4-chlorophenyl)methyl]-8-hydroxy-7-quinolinecarboxamide] returned a melting point of 148 to 151 °C. On HCMV polymerase (setting [1]), the IC50 is 2.5 µM.

`O=C(Nc1nc2ccc(Cl)cc2s1)c1ccc2cccnc2c1O` [Example 13, N-(6-Chloro-2-benzothiazolyl)-8-hydroxy-7-quinolinecarboxamide] gave a melting point of more than 320 °C. Besides, at HCMV polymerase (setting [1]), the IC50 was more than 100 µM.

For the origin of these results see US6500842B1, “8-hydroxy-7-substituted quinolines as anti-viral agents” (Pharmacia & Upjohn Company, priority 1996, dated 2002).
